Laboratory results as given in patent publication US20250235472A1, “USE OF 6-PHOSPHOGLUCONIC ACID AND DERIVATIVE THEREOF IN PREPARING MEDICAMENT FOR PREVENTING OR TREATING GLYCOMETABOLISM DISORDER DISEASES” (FUDAN UNIVERSITY, priority 2022, published 2025).

Columns and labels:
[1] = system: type 1 diabetes mellitus mice; experiment: Insulin concentration in peripheral blood measured by ultrasensitive insulin kit; type: in vivo, mouse; conditions: 200 mg/kg twice daily; fasted for 16 hours; compared with the normal saline group; FIG. 6
Source text: (§1) • 1. Blood glucose test strips and blood glucose meter, from Eli Lilly and Company, USA; • 2. C57 B6/J Female mice, from Nanjing Gem Pharmaceutical Co., Ltd.; • 3. Streptozotocin, from Sigma-Aldrich Company, USA; • 4. Ultrasensitive insulin kit, from ALPCO Company, USA; • 5. Insulin antibody, from DAKO Company, USA; • 6. Glucagon antibody, from ABCAM Company, USA; and • 7. Other reagents required for immunofluorescence assay were purchased from Shanghai Sangon Technology Co., Ltd.
(§2) An 8-week-old C57B6/J female mouse was administered intraperitoneally with 200 mg/kg of streptozotocin solution. After 5 days of injection, the random blood glucose level of the mice was measured, mice with blood glucose levels higher than 20 mmol/L were selected and randomly divided into two groups for subsequent experiments.
(§3) Type 1 diabetes mellitus mouse models were administered 200 mg/kg of 6-phosphogluconic acid methyl ester (compound 1-1) or physiological saline at 8 a.m. and 8 p.m. everyday. The random blood glucose level of each mouse was measured once a day. Before the end of the experiment, the mice were fasted for 16 hours, and a small amount of peripheral blood was taken from the tail vein.
The concentration of insulin in peripheral blood of mice was measured by an ultrasensitive insulin kit.

[2] = system: type 1 diabetes mellitus mice; experiment: Random blood glucose level in streptozotocin type 1 diabetes mellitus mouse model; type: in vivo; conditions: 200 mg/kg at 8 a.m. and 8 p.m. everyday; compared with the normal saline group; FIG. 4
Source text: as §1, §2, §3

islet β-cells = experiment: Immunofluorescence assay of regeneration of islet β-cells in type 1 diabetes mellitus mice; type: in vivo, mouse; conditions: 200 mg/kg twice daily, compared with the normal saline group, FIG. 5
Source text: as §1, §2, §3
Immunofluorescence assay was used to measure the regeneration of islet β-cells of type 1 diabetes mellitus mice.

With `COC(=O)[C@H](O)[C@@H](O)[C@H](O)[C@H](O)COP(=O)(O)O` [Compound 1-1, 6-phosphogluconic acid methyl ester] the “concentration of fasting insulin in peripheral blood” value [1] was “significantly increased”, the “random blood glucose level” value [2] was “significantly reduced” and the “number of islet β-cells (regeneration)” value (islet β-cells) was “significantly increased”.
